The target of test [1] is T1, GPR35 (Homo sapiens, UniProt Q9HC97, S294R). Put plainly: MAPK phosphorylation (western blot, phospho-p44/42 MAP kinase) in human GPR35-expressed CHO cells. More on the design: The resulting fragment (ca. 1 kb) was introduced into vector pAKKO-111; expressed in transfected cells. Particulars: stimulation with 1-5 μM, 5 minutes. It is filed as cell-based. The procedure: The human GPR35-expressed CHO cells prepared in REFERENCE EXAMPLE 1 were incubated for 48 hours in a 12-well plate at 5×10^4 cells/well. MEMα (containing no nucleic acid) supplemented with 10% dialyzed FBS was used as a medium. After the medium was removed by suction, the cells were washed with 1 ml (×2) of serum-free medium and 500 μl of the serum-free medium was added thereto, followed by incubation at 37° C. for 16 hours. DNQX or NBQX was added to the cells at its optimum concentration, followed by incubation at 37° C. for 5 minutes. Immediately after the medium was removed by suction, 50 μl of Blue Loading Buffer (BioLabs) was added, the cells were lysed and taken up by pipetting. The cell lysate was destructed using a sonicator (Sono Cleaner; KAIJO DENKI) and then heat-treated at 95° C. for 5 minutes. Centrifugation (15,000 rpm, 4° C., 5 minutes) was made and the supernatant was used as a final sample.
T1 sequence (Q9HC97 whole entry S294R, the tested form may be a part): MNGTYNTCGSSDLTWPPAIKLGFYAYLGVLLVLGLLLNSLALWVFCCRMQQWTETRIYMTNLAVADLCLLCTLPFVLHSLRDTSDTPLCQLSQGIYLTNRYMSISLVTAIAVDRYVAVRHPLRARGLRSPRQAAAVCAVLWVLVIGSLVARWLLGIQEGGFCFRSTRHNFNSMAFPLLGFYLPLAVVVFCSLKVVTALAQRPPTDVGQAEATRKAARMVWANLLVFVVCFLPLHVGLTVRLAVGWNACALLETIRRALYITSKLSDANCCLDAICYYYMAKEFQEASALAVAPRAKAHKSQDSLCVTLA
After 10 μl of the sample was electrophoresed on 10% SDS-PAGE, the sample was transferred to a PVDF membrane by western blotting. The membrane was immersed in Block Ace (manufactured by Dainippon Pharmaceutical Co., Ltd.) and then shaken for an hour at room temperature. […] The membrane was applied to a fluorescence detector (LAS-1000; FUJI FILM) in accordance with the protocol of ECLplus Western Blotting System (Amersham Biosciences). […]

A further test relates to GPR35-GFP fusion protein. Put plainly: Internalization of GPR35-GFP fusion protein expressed on CHO cells (Cellomics ArrayScan, MemCyto Above Threshold). In kind it is cell-based, human. The following applies: CHO cells stably expressing GPR35-GFP; 3 μM, 10 μM and 30 μM. The procedure:
The CHO cell line, in which a protein wherein GFP was fused to the C-terminus of human GPR35 was stably expressed, was established using an expression plasmid for animal cells by publicly known methods. In assaying internalization of the protein, the cells at growth phase were plated at the concentration of 40000 cells/well on a 96-well plate (Packard, View-Plate™-96, Black), and cultured overnight at 37° C. under 5% CO2. First, the cells in the well were washed with assay buffer (HBSS (Gibco/BRL) supplemented with 0.1% bovine serum albumin (BSA)). Then, 100 μl each of the assay buffers containing 3 μM, 10 μM and 30 μM DNQX and NBQX was added to each well, followed by incubation at 37° C. under conditions of 5% CO2. Subsequently, 100 μl/well of a cell fixation solution (4% paraformaldehyde-containing PBS (free of Ca/Mg)) was added to the well, which was allowed to stand at room temperature for 30 minutes. The cell fixation solution was removed. […] The intracellular localization of GPR35-GFP fusion protein was assessed using MemCyto Above Threshold (cell ratio (unit %) over a specific parameter (MemCyto Intensity Ratio) representing the ratio of membrane/cytoplasmic localization of the protein to all cells in the well), which is one of the parameters of the GPCR Signaling Assay Protocol attached to the above system.

Test [2] has as its target T1, GPR35. As to the kind of experiment: Suppression of forskolin-increased intracellular cAMP levels in human GPR35-expressed CHO cell line. In kind it is cell-based. The following applies: 2 μM forskolin, 37° C., 30 minutes (FIG. 3). More on the design: The resulting fragment (ca. 1 kb) was introduced into vector pAKKO-111; expressed in transfected cells. The procedure: The human GPR35-expressed CHO cells obtained in REFERENCE EXAMPLE 1 were washed with an assay buffer (HBSS (Gibco/BRL) supplemented with 0.1% bovine serum albumin and 0.2 mM isobutylmethylxanthine), followed by incubation at 37° C. for 30 minutes under conditions of 5% CO2. DNQX and NBQX were diluted with the assay buffer and the dilutions were added to the cells at respective concentrations. Thereafter forskolin was added to become 2 μM. Incubation was performed at 37° C. for 30 minutes under conditions of 5% CO2. The culture supernatant was discarded and the intracellular cAMP level was assayed on a plate reader (EnVision, Perkin Elmer) in accordance with the protocol of cAMP Screen Kit (Applied Biosystems).
Background: Changes in cAMP serve as a functional read-out for many G protein-coupled receptors.

For the next test, the target named is T2, human TGR23 (Homo sapiens, UniProt Q6W5P4).
T2 construct: expressed in transfected cells; host or cells: CHO cells
T2 sequence (Q6W5P4 1-371): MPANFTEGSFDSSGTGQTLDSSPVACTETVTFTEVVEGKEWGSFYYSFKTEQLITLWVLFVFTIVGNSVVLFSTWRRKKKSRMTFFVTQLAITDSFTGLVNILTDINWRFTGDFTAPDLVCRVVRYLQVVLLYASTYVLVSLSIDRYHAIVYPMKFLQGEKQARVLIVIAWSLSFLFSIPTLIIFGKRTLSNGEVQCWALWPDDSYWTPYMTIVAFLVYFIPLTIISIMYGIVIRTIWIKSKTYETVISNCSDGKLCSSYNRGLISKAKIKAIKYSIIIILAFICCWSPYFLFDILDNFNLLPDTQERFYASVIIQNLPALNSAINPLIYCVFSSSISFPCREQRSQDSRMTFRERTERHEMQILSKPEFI
As to the kind of experiment: MAPK phosphorylation in control cells (human TGR23-expressed CHO cells). It is filed as cell-based.

With `O=C1N=c2cc([N+](=O)[O-])c([N+](=O)[O-])cc2=NC1=O` [DNQX, 6,7-dinitroquinoxaline-2,3-dione], on GPR35 [1], the “level of phosphorylated MAP-kinase” value is “enhanced”. Also, the “activity of inducing internalization of the GPR35-GFP protein (decreased MemCyto Above Threshold value)” value in the test with GPR35-GFP fusion protein is recorded as “dose-dependent internalization”. At GPR35 [2], the “decrease of intracellular cAMP levels increased by forskolin addition” value was “dose-dependent and specific decrease”. At human TGR23, the “level of phosphorylated MAP-kinase in control cells” value is given as “any enhanced level of phosphorylation was not observed”.
As to `NS(=O)(=O)c1cccc2c3c(cc([N+](=O)[O-])c12)=NC(=O)C(=O)N=3` [NBQX, 6-nitro-7-sulfamoylbenzo[f]quinoxaline-2,3-dione], the “level of phosphorylated MAP-kinase” value at GPR35 [1] is “enhanced”. The “activity of inducing internalization of the GPR35-GFP protein (decreased MemCyto Above Threshold value)” value in the test on GPR35-GFP fusion protein is “dose-dependent internalization”. Besides, on GPR35 [2], the “decrease of intracellular cAMP levels increased by forskolin addition” value was “dose-dependent and specific decrease”. Besides, the “level of phosphorylated MAP-kinase in control cells” value on human TGR23 was “any enhanced level of phosphorylation was not observed”.

These data come from patent publication US7892755B2, “Screening method” (Takeda Pharmaceutical Company Limited, priority 2004, dated 2011).
